Results from ChEMBL document CHEMBL3045959, “QSAR studies on substituted 3- or 4-phenyl-1,8-naphthyridine derivatives as antimicrobial agents” (2012).

Assays:
Assay type in all cases: functional
[1] = system: Escherichia coli; experiment: Antibacterial activity against Escherichia coli by […]
[2] = system: Mycobacterium tuberculosis; experiment: Antimycobacterial activity against Mycobacterium tuberculosis H37Rv at 6.25 ug/ml
[3] = system: Staphylococcus aureus; experiment: Antibacterial activity against Staphylococcus aureus by […]

SMILES	inhibition zone (IZ) [1] [mm]	-log(inh/100-inh) [2]	inhibition zone (IZ) [3] [mm]
CCOC(=O)N1CCN(c2nc3nc(Cl)ccc3cc2-c2ccccc2)CC1	24	0.3076	
Nc1ccc(-c2ccc3ccc(-c4ccc(N5CCNCC5)cc4)nc3n2)cc1	32	1.195	16
c1ccc(-c2cc3ccc(N4CCNCC4)nc3nc2N2CCCCC2)cc1	14	0.908	18
CCOC(=O)N1CCN(c2nc3nc(N4CCOCC4)ccc3cc2-c2ccccc2)CC1	17	0.2499	13
COC(=O)N1CCN(c2nc3nc(OC)ccc3cc2-c2ccccc2)CC1	12	-0.1224	16
Cc1ccc2c(Cl)c(C)c(Cl)nc2n1		-1.9956	
Nc1ccc2c(-c3ccccc3)cc(N3CCCCC3)nc2n1	20	1.0048	14
COc1ccc2c(-c3ccccc3)cc(CCN3CCNCC3)nc2n1		0.4102	
Cc1ccc2c(Cl)c(Cc3ccccc3)c(N3CCCCC3)nc2n1		-0.1581	
COc1ccc2c(-c3ccccc3)cc(N3CCCCC3)nc2n1	20	0.7533	
Oc1ccc2c(Cl)cc(N3CCOCC3)nc2n1		-1.6902	
Oc1ccc(-c2ccc3c(-c4ccccc4)cc(-c4ccc(N5CCNCC5)cc4)nc3n2)cc1	14	-0.3274	14
Cc1ccc2c(N3CCOCC3)c(C)c(N3CCCCC3)nc2n1		-0.908	
Clc1ccc2c(-c3ccccc3)cc(N3CCOCC3)nc2n1	12	-0.2499	18
CCOC(=O)N1CCN(c2ccc3cc(-c4ccccc4)c(N4CCN(C(=O)OCC)CC4)nc3n2)CC1	18	-0.0348	17
c1ccc(-c2cc3ccc(N4CCNCC4)nc3nc2N2CCNCC2)cc1	12	0.432	14
Cc1ccc2c(N3CCOCC3)c(Cc3ccccc3)c(N3CCCCC3)nc2n1		-0.6021	
O=[N+]([O-])c1cc2cc(-c3ccccc3)c(N3CCCCC3)nc2nc1N1CCCCC1		0.5754	30
Clc1ccc2c(-c3ccccc3)cc(N3CCCCC3)nc2n1		0.368	26
Clc1ccc2c(N3CCCCC3)cc(N3CCOCC3)nc2n1		-1.0607	

SMILES	inhibition zone (IZ) [1] [mm]	-log(inh/100-inh) [2]	inhibition zone (IZ) [3] [mm]
Nc1ccc2c(-c3ccccc3)cc(N3CCOCC3)nc2n1	33	-0.0522	20
c1ccc(-c2cc(CCN3CCNCC3)nc3nc(CCN4CCNCC4)ccc23)cc1	12	0.6297	12
Clc1cc(N2CCOCC2)nc2nc(N3CCCCC3)ccc12		-0.432	
Oc1ccc2c(N3CCOCC3)cc(N3CCOCC3)nc2n1		-1.0048	
Cc1ccc2c(Cl)c(Cc3ccccc3)c(N3CCOCC3)nc2n1		-0.6021	
Nc1ccc2cc(-c3ccccc3)c(N3CCCCC3)nc2n1		0.1581	18
c1ccc(-c2cc3ccc(N4CCCCC4)nc3nc2N2CCNCC2)cc1	18	0.8653	
COc1ccc(-c2ccc3ccc(-c4ccc(N5CCNCC5)cc4)nc3n2)cc1		0.7884	28
Cc1ccc2c(Cl)c(Cc3ccccc3)c(C)nc2n1		0.0872	
COc1ccc2cc(-c3ccccc3)c(N3CCNCC3)nc2n1	16	0.3076	12
CC(=O)Nc1ccc2c(Cl)cc(N3CCCCC3)nc2n1		-1.0607	
c1cc2c(N3CCCCC3)cc(N3CCOCC3)nc2nc1N1CCCCC1		-0.1224	
Nc1ccc2c(Cl)cc(N3CCCCC3)nc2n1		-0.2126	
Oc1ccc2c(-c3ccccc3)cc(N3CCOCC3)nc2n1	26		20
Nc1ccc2c(-c3ccccc3)cc(CCN3CCNCC3)nc2n1	36	0.3475	16
c1cc(N2CCNCC2)ccc1-c1ccc2ccc(-c3ccc(N4CCNCC4)cc3)nc2n1	18	-0.0522	12
c1ccc(-c2cc(N3CCOCC3)nc3nc(N4CCOCC4)ccc23)cc1			12
c1ccc(-c2cc3ccc(N4CCOCC4)nc3nc2N2CCCCC2)cc1	26	0.6886	22
Oc1ccc2c(-c3ccccc3)cc(CCN3CCNCC3)nc2n1		-0.3889	12
CCOC(=O)N1CCN(c2cc(-c3ccccc3)c3ccc(N4CCNCC4)nc3n2)CC1	25	1.0607	23

SMILES	inhibition zone (IZ) [1] [mm]	-log(inh/100-inh) [2]	inhibition zone (IZ) [3] [mm]
c1ccc(-c2cc(N3CCCCC3)nc3nc(N4CCCCC4)ccc23)cc1	28	1.9956	14
Cc1ccc2c(Cl)c(C)c(N3CCCCC3)nc2n1		-0.6886	
Oc1ccc2c(-c3ccccc3)cc(N3CCCCC3)nc2n1			24
Clc1ccc2c(N3CCOCC3)cc(N3CCOCC3)nc2n1		-1.9956	
c1ccc(-c2cc3ccc(N4CCCCC4)nc3nc2N2CCCCC2)cc1	20	1.9956	16
O=C(CCc1ccc2c(-c3ccccc3)cc(O)nc2n1)OCCN1CCNCC1		-0.7202	
c1cc2c(N3CCCCC3)cc(N3CCOCC3)nc2nc1N1CCOCC1		-0.908	
Clc1ccc2c(Cl)cc(N3CCOCC3)nc2n1		-0.2126	
Nc1cc2cc(-c3ccccc3)c(N3CCCCC3)nc2nc1N1CCCCC1	26	0.3889	
Nc1ccc2c(N3CCCCC3)cc(N3CCNCC3)nc2n1		0.4102	
COc1ccc2c(-c3ccccc3)cc(N3CCOCC3)nc2n1	24	-0.2689	
CCOC(=O)N1CCN(c2ccc3cc(-c4ccccc4)c(N4CCCCC4)nc3n2)CC1	18	1.0048	15
c1cc2c(N3CCOCC3)cc(N3CCOCC3)nc2nc1N1CCOCC1		-0.908	
Clc1ccc2c(-c3ccccc3)cc(CCN3CCNCC3)nc2n1	16	0.3274	
Clc1ccc(-c2ccc3c(-c4ccccc4)cc(-c4ccc(N5CCNCC5)cc4)nc3n2)cc1	14	0.0871	22
Cc1ccc2c(N3CCCCC3)c(Cc3ccccc3)c(N3CCCCC3)nc2n1		1.3802	
Nc1ccc2c(N3CCCCC3)cc(N3CCOCC3)nc2n1		-1.195	
Oc1cc(-c2ccccc2)c2ccc(N3CCNCC3)nc2n1		-0.908	
